Data from ChEMBL document CHEMBL3400056, “Novel thiazolo[3,2-b]-1,2,4-triazoles derived from naproxen with analgesic/anti-inflammatory properties: Synthesis, biological evaluation and molecular modeling studies” (Bioorg Med Chem, 2015).

Experiments:
Mus musculus [1] = assay: Analgesic activity in Swiss albino mouse assessed as time of licking paws at 100 mg/kg, po measured after 2 hrs by tail flick test relative to control; format: functional
Mus musculus [2] = assay: Acute toxicity in Swiss albino mouse assessed as weight loss at 50 to 100 mg/kg, po measured up to 14 days; format: organism-based; set-up: dose 50-100 mg/kg, route oral; settings: in vivo, 336 h
Mus musculus [3] = assay: Acute toxicity in Swiss albino mouse assessed as mortality at 50 to 100 mg/kg, po measured after 6 hrs to 14 days; format: organism-based; set-up: dose 50-100 mg/kg, route oral; settings: in vivo
Mus musculus [4] = assay: Analgesic activity in Swiss albino mouse assessed as latancy of withdrawing tail at 50 mg/kg, po measured after 2 hrs by tail flick test relative to control; format: functional
Mus musculus [5] = assay: Acute toxicity in Swiss albino mouse assessed as behavioral changes at 50 to 100 mg/kg, po measured up to 14 days; format: organism-based; set-up: dose 50-100 mg/kg, route oral; settings: in vivo, 336 h
Mus musculus [6] = assay: Analgesic activity in Swiss albino mouse assessed as latancy of withdrawing tail at 100 mg/kg, po measured after 2 hrs by tail flick test relative to control; format: functional
Mus musculus [7] = assay: Antiinflammatory activity in Swiss albino mouse assessed as inhibition of carrageenan-induced paw edema at 50 mg/kg, po administered 1 hr prior to carrageenan challenge measured after 2 hrs relative to control; format: functional; set-up: scale not given: the % may be the effect or the level left
Mus musculus [8] = assay: Gastrointestinal toxicity in Swiss albino mouse assessed as ulcer index at 50 mg/kg, po measured after 2 hrs; format: organism-based; set-up: dose 50 mg/kg, route oral; settings: in vivo
Mus musculus [9] = assay: Gastrointestinal toxicity in Swiss albino mouse assessed as ulcer index at 100 mg/kg, po measured after 2 hrs; format: organism-based; set-up: dose 100 mg/kg, route oral; settings: in vivo
Mus musculus [10] = assay: Antiinflammatory activity in Swiss albino mouse assessed as inhibition of carrageenan-induced paw edema at 100 mg/kg, po administered 1 hr prior to carrageenan challenge measured after 2 hrs relative to control; format: functional; set-up: scale not given: the % may be the effect or the level left
Mus musculus [11] = assay: Analgesic activity in Swiss albino mouse assessed as time of licking paws at 50 mg/kg, po measured after 2 hrs by tail flick test relative to control; format: functional

| Structure (SMILES) | MPE (Mus musculus [1]) | Activity (Mus musculus [2]) | Activity (Mus musculus [3]) | MPE (Mus musculus [4]) | Activity (Mus musculus [5]) | MPE (Mus musculus [6]) | Activity (Mus musculus [7]) | UI (Mus musculus [8]) | UI (Mus musculus [9]) | Activity (Mus musculus [10]) | MPE (Mus musculus [11]) |
| --- | --- | --- | --- | --- | --- | --- | --- | --- | --- | --- | --- |
| COc1ccc2cc(C(C)c3nc4s/c(=C\c5ccc(OC(C)=O)cc5)c(=O)n4n3)ccc2c1 (stereo unspecified) | 19.9% | Non-toxic | Non-toxic | 23.3% | Non-toxic | 18.2% | 36.2% | 2.9 | 2.7 | 33.6% | 24.9% |
| COc1ccc2c3c1O[C@H]1C(=O)CC[C@@]4(O)[C@@H](C2)N(C)CC[C@]314 [OXYCODONE] | 52.9% |  |  | 63.3% |  | 66.9% | 0.9% | 1.5 | 1.5 | 3.9% | 52.9% |
| COc1ccc2cc(C(C)c3nc4s/c(=C\c5sccc5C)c(=O)n4n3)ccc2c1 (stereo unspecified) | 18.3% | Non-toxic | Non-toxic | 15.2% | Non-toxic | 10.2% | 22.5% | 2.6 | 2.7 | 19.7% | 13.5% |
| COc1ccc2cc(C(C)c3nc4s/c(=C\C=C\c5ccccc5)c(=O)n4n3)ccc2c1 (stereo unspecified) | 24.8% | Non-toxic | Non-toxic | 28.4% | Non-toxic | 30.9% | 36.2% | 2.4 | 3.2 | 37% | 15.8% |
| COc1ccc2cc(C(C)c3nc4s/c(=C\c5cccc(OC(C)=O)c5)c(=O)n4n3)ccc2c1 (stereo unspecified) | 20.7% | Non-toxic | Non-toxic | 19.2% | Non-toxic | 20% | 31.6% | 2.9 | 2.4 | 29.1% | 17.5% |
| COc1ccc2cc(C(C)c3nc4s/c(=C\c5cn(C(C)=O)c6ccccc56)c(=O)n4n3)ccc2c1 (stereo unspecified) | 18.7% | Non-toxic | Non-toxic | 30.8% | Non-toxic | 28.3% | 37.7% | 2.7 | 2.4 | 43.3% | 17.5% |
| COc1ccc2cc(C(C)c3nc4s/c(=C\c5ccco5)c(=O)n4n3)ccc2c1 (stereo unspecified) | 22% | Non-toxic | Non-toxic | 13.3% | Non-toxic | 19.3% | 15.2% | 2.6 | 1.9 | 26% | 19.7% |
| COc1ccc2cc([C@H](C)C(=O)O)ccc2c1 [NAPROXEN] | 38.6% |  |  | 47.6% |  | 49.4% | 49.2% | 3.6 | 4.2 | 53.3% | 39.3% |
| COc1ccc2cc(C(C)c3nc4s/c(=C\c5cc(Br)cs5)c(=O)n4n3)ccc2c1 (stereo unspecified) | 21.2% | Non-toxic | Non-toxic | 28.7% | Non-toxic | 19% | 43% | 2.9 | 2.9 | 32.3% | 20.1% |
| COc1ccc2cc(C(C)c3nc4s/c(=C\c5ccc(C)o5)c(=O)n4n3)ccc2c1 (stereo unspecified) | 35.3% | Non-toxic | Non-toxic | 38.1% | Non-toxic | 48.6% | 41% | 1.3 | 2.7 | 37% | 23.9% |
| COc1ccc2cc(C(C)c3nc4s/c(=C\c5ccc(OCc6ccccc6)cc5)c(=O)n4n3)ccc2c1 (stereo unspecified) | 14.5% | Non-toxic | Non-toxic | 24.4% | Non-toxic | 28.1% | 44.5% | 3 | 2.7 | 32.5% | 23.6% |
| COc1ccc2cc(C(C)c3n[nH]c(=S)[nH]3)ccc2c1 (stereo unspecified) | 8.2% | Non-toxic | Non-toxic | 16.8% | Non-toxic | 22.2% | 30.1% | 2.1 | 2.3 | 21.3% | 18.7% |
| COc1ccc2cc(C(C)c3nc4s/c(=C\c5ccc6ccccc6c5)c(=O)n4n3)ccc2c1 (stereo unspecified) | 30.3% | Non-toxic | Non-toxic | 30% | Non-toxic | 32.2% | 37.9% | 2 | 3.4 | 44.9% | 17.7% |
| COc1ccc2cc(C(C)c3nc4s/c(=C\c5ccccc5OCc5ccccc5)c(=O)n4n3)ccc2c1 (stereo unspecified) | 25.2% | Non-toxic | Non-toxic | 18.9% | Non-toxic | 18% | 43% | 2.4 | 2.6 | 33.9% | 17.7% |
| COc1ccc2cc(C(C)c3nc4s/c(=C\c5cccc(OCc6ccccc6)c5)c(=O)n4n3)ccc2c1 (stereo unspecified) | 19.2% | Non-toxic | Non-toxic | 24.8% | Non-toxic | 22.3% | 37.9% | 2.9 | 2.9 | 34.4% | 21.5% |
| COc1ccc2cc(C(C)c3nc4s/c(=C\c5cccs5)c(=O)n4n3)ccc2c1 (stereo unspecified) | 21.3% | Non-toxic | Non-toxic | 10.5% | Non-toxic | 24.9% | 21.7% | 2.6 | 2.3 | 21.2% | 16.2% |
| COc1ccc2cc(C(C)c3nc4s/c(=C\c5ccccc5OC(C)=O)c(=O)n4n3)ccc2c1 (stereo unspecified) | 27% | Non-toxic | Non-toxic | 27.8% | Non-toxic | 13.3% | 26.6% | 2.9 | 3 | 44.9% | 19.8% |
